Like-named read-outs stand apart in the source and are kept apart here.

The source of these data is patent US20170082610A1, “METHOD FOR PREDICTING TOXICITY OF A COMPOUND BASED ON NUCLEAR FACTOR-kB TRANSLOCATION” (priority 2014, published 2017).

The test system of test [1] is NF-κB p65. Briefly: HCS assay of compound-induced NF-κB p65 nuclear translocation in HPTC1 (Example 3). Type of test: cell-based, human. As to conditions: for nuclear translocation of NF-κB (positive control sample): FIG. 9. An excerpt: (§1) No. 58488852 (HPTC 1) and Lot. No. 61247356 (HPTC10), were bought from the American Type Culture Collection (ATCC, Manassas, Va., USA). HPTC6 were isolated from a nephrectomy sample obtained from the National University Health System (NUHS, Singapore). Only normal tissue without pathological changes was used, which was selected by a pathologist. […] No. PCS-400-030) supplemented with Renal Epithelial Cell Growth Kit (ATCC, Cat. No. PCS-400-040) and 1% Penicillin Streptomycin (Gibco, Cat. No. 15140-122). […] HK-2 and LLC-PK1cells were purchased from ATCC. These two cell lines were maintained in Dulbecco's Modified Eagle Medium (DMEM) supplemented with 10% fetal bovine serum (FBS) and 1% Penicillin Streptomycin. Approval for the work with human kidney samples (DSRB-E/11/143) and cell types (NUS-IRB Ref. Code: 09-[…]) had been obtained. All cells were incubated in a humidified atmosphere at 37° C. and 5% CO2. Cells were seeded into 384-well black plates with transparent bottom (Greiner, Cat. No. 781091). HPTC1 and HPTC6 were seeded at 50,000 cells/cm^2; HPTC10 were seeded at 100,000 cells/cm^2; HK-2 cells were seeded at 20,000 cells/cm^2 and LLC-PK1 cells were seeded at 10,000 cells/cm^2 to adjust for the different growth kinetics of the different cell types and batches used. All cells were cultivated for 3 days to achieve the formation of a differentiated simple epithelium before drug treatment overnight (16 hours). The concentrations of the 43 drugs screened were 1000, 500, 250, 125, 63, 16 and 1.6 μg/mL. Puromycin at 100 μg/mL and TNF-α at 100 ng/mL were used as positive controls. […] The images were automatically analysed by using MetaXpressTM image analysis software version 2.0 using the Translocation-Enhanced Module. […] The intensity ratios of the outer nuclear area versus the inner nuclear area were automatically quantified by the MetaXpressTM image analysis software (version 2.0). The final quantitative results for each data point were the average results from 36 images (4 replicates (wells) with 9 multi-channel images per well). […]

The next test relates to HPTC1. In words: Cell death in HPTC1 by HCS, based on counts of cell nuclei (Example 3). Details: species or system human. As to conditions: HPTC1, 16 hours, 1.6-1000 μg/mL.
Text: as §1, with “CO2.” for “CO2. Cells were seeded into 384-well black plates with transparent bottom (Greiner, Cat. No. 781091). HPTC1 and HPTC6 were seeded at 50,000 cells/cm^2; HPTC10 were seeded at 100,000 cells/cm^2; HK-2 cells were seeded at 20,000 cells/cm^2 and LLC-PK1 cells were seeded at 10,000 cells/cm^2 to adjust for the different growth kinetics of the different cell types and batches used. All cells were cultivated for 3 days to achieve the formation of a differentiated simple epithelium before drug treatment overnight (16 hours). The concentrations of the 43 drugs screened were 1000, 500, 250, 125, 63, 16 and 1.6 μg/mL. Puromycin at 100 μg/mL and TNF-α at 100 ng/mL were used as positive controls.”

Test [2] has as its system NF-κB p65. In words: HCS assay of compound-induced NF-κB p65 nuclear translocation in HPTC (Example 2). It counts as cell-based, human.
The mark [3] stands for this setting: HPTC, 16 hours, 1.6-1000 μg/mL, 96-well plates, HCS images.

As to `C=CC[C@@H]1/C=C(\C)C[C@H](C)C[C@H](OC)[C@H]2O[C@@](O)(C(=O)C(=O)N3CCCC[C@H]3C(=O)O[C@H](/C(C)=C/[C@@H]3CC[C@@H](O)[C@H](OC)C3)[C@H](C)[C@@H](O)CC1=O)[C@H](C)C[C@@H]2OC` [Tacrolimus], the “EC50 (compound concentration where nuclear translocation of NF-κB occurred in 50% of cells)” value in the test on NF-κB p65 [1] (HPTC1, 16 hours, 1.6-1000 μg/mL) is “relatively low”. Besides, in the test with HPTC1, the “IC50 (compound concentration where cell death occurred in 50% of cells; counts of cell nuclei)” value is given as “relatively low”.

For the compound `O=[As]O[As]=O` (stereo not shown) [arsenic (III) oxide], in the test on NF-κB p65 [2] (setting [3]), the “Qualitative analysis of NF-κB translocation (visual inspection)” value (“Qualitative analysis” for short) is reported as “positive”.

Take `[Cl][Au]` [gold (I) chloride]: the “Qualitative analysis” value with NF-κB p65 [2] (setting [3]) is listed as “positive”.

As for `CC(=O)[O-].CC(=O)[O-].[Pb+2]` [lead acetate], in the test on NF-κB p65 [2] (setting [3]), the “Qualitative analysis” value is reported as “positive”.

Turning to `C[n+]1ccc(-c2cc[n+](C)cc2)cc1` [paraquat], in the test with NF-κB p65 [2], the “Qualitative analysis” value is “positive”.

Turning to `[K+].[K+].[O]=[Cr](=[O])([O-])[O][Cr](=[O])(=[O])[O-]` [potassium dichromate], the “Qualitative analysis” value in the test with NF-κB p65 [2] (setting [3]) was “positive”.

For `COc1ccc(C[C@H](N)C(=O)N[C@H]2[C@@H](O)[C@H](n3cnc4c(N(C)C)ncnc43)O[C@@H]2CO)cc1` [puromycin], the “nuclear translocation of NF-κB (positive control sample)” value with NF-κB p65 [1] (HPTC1, 16 hours) is on record as “displayed nuclear translocation of NF-κB”.

Consider TNF-α, for which the “nuclear translocation of NF-κB (positive control sample)” value with NF-κB p65 [1] (HPTC1, 100 ng/mL, 16 hours) is given as “displayed nuclear translocation of NF-κB”.

For bismuth (III) oxide, the “Qualitative analysis” value in the test on NF-κB p65 [2] (setting [3]) is “positive”.
